Results published in article PMC9969401, “Discovery of 2-(3-Benzamidopropanamido)thiazole-5-carboxylate Inhibitors of the Kinesin HSET (KIFC1) and the Development of Cellular Target Engagement Probes” (Journal of Medicinal Chemistry, 2023).
Values belong to the compound of their own block, whether it stands above or below them.

Key:
[1] = BALB/c mouse plasma stability assay; assay type: in vitro ADME; conditions: read-out: estimated half-life in plasma
HSET in DLD1 4N cells = target: T1, HSET in DLD1 4N cells (Homo sapiens, UniProt Q9BW19); assay: Click probe localization target engagement imaging in DLD1 4N cells; assay type: cell-based; conditions: for Average Pixel intensity: DLD1 4N, Tz-Cy5 800nM
T1 construct: overlapped with the signal from the antibody-probed endogenous HSET protein; endogenous in cells; host or cells: DLD1 4N cells
T1 sequence (Q9BW19 1-673): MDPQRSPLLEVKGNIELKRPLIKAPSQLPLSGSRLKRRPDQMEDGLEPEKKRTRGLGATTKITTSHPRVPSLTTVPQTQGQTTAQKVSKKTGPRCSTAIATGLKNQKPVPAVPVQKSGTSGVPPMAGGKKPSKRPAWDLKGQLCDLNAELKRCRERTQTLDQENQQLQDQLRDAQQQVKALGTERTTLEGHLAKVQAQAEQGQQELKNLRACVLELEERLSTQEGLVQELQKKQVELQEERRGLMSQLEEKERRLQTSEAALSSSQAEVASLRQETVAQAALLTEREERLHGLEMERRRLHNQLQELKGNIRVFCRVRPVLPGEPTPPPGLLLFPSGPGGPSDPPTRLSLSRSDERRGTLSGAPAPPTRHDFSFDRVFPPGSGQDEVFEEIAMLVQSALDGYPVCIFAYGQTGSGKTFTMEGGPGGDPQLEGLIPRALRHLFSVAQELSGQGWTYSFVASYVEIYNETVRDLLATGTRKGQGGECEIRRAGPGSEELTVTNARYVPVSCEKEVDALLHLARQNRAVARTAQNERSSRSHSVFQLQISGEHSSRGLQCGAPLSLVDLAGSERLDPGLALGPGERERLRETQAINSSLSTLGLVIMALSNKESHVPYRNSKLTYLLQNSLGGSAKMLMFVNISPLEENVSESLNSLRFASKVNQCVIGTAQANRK
Protocol: (§1) The Cy-5 tetrazine dye selected for this experiment is not cell-permeable, thus fixation and permeabilization of cells were necessary prior to its addition. Experiments were conducted in DLD1 4N cells and, as a negative control, isogenic 2N DLD1 HSET KO cells in which HSET expression was prevented by the disruption of the HSET gene using CRISPR. Cells were treated first with proTAME for 2 h to accumulate mitotic events, followed by treatment with the TCO probe 40 for 45 min. The live cells were then fixed and permeabilized before treatment with the tetrazine-Cy5 dye and incubation to allow the IEDDA reaction to occur. Additionally, the cells were stained for the endogenous HSET protein using indirect immunofluorescence and imaged to observe the fluorescence from both the TCO probe and antibody-labeled HSET. […] A 3 μM concentration of the probe 40 gave an acceptable signal-to-noise ratio of around 2:1. Even under these optimal conditions, some residual uniform cytoplasmic Cy5 signal was observed within the cells. However, a clear Cy5 decoration of the mitotic spindle was seen, which overlapped with the signal from the antibody-probed endogenous HSET protein (Figures 2A and S6). […] We observed a 14–17-fold increase in signal in DLD1 4N cells treated with 40 relative to tetrazine-Cy5 alone. […] Comparing the intensity of click probe labeling coincident with the mitotic spindle in DLD1 4N cells to that in DLD1 HSET KO cells after both were treated with 40, we observed a twofold higher signal in the former.
(§2) Direct target engagement of active inhibitor 36 was measured by calculating its capacity to displace the TCO-containing probe 40. 4N DLD1 cells and DLD1 HSET KO cells (negative control) were plated in 96-well ibidi μ-Clear plates (IB-89626, ibidi). Cells were first treated for 2 h with 8 μM pro-TAME (I-440–01M, R&D system) to accumulate mitotic cells and were then treated with 8 μM MG-132 (S2619, SelleckChem) and 3 μM 40, alone or together with active inhibitor 36 in DMEM media with 1% FBS for 45 min. Cells were then washed three times in DMEM, with the second wash being incubated for 10 min to ensure the optimal reduction of unspecific compound binding. After an additional PBS wash, cells were then fixed in 4% PFA/PBS (15670799, Thermo Scientific) prior to incubation with 400 nM tetraszine-Cy5 (CLK-015-05, Jena Biosciences) in 1.5% FBS/PBS for 10 min at room temperature. Cells were permeabilized by the addition of 0.5% TritonX-100/PBS for 5 min before being stained overnight for Pericentrin (1:1500 ab28144 mouse anti-PCNT, Abcam) and KIFC1 (1:1500 12313S rabbit anti-KIFC1, Cell Signaling Technologies). Secondary antibodies Alexa Fluor 488 donkey antirabbit and Alexa Fluor 555 donkey antimouse (1:1500, A21206 and A31570, respectively, Life Technologies) were added together with 1 μg/mL DAPI (D9542, Sigma) in 1.5% FBS in PBS.
(§3) Plates were imaged at 40× using a Zeiss LSM980 confocal microscope with Airyscan 2. The subsequent analysis and quantification were performed using 3D image segmentation with the Arivis4D software. Mitotic cells were segmented by selecting for the highest density (integrated DAPI intensity/total volume), and the mitotic pole areas were segmented using the Pericentrin signal. The signal of the click probe (Cy5) and total KIFC1 (FITC) was measured on the mitotic pole area, and both were normalized to the control condition containing 40 probe alone. The ratio of probe per target (click probe pole integrated intensity signal/KIFC1 pole integrated intensity signal) was used to calculate the occupancy of the probe in the target protein and normalized to the control condition containing 40 probe alone (n > 100 for each replicate, two replicates per concentration point).

DLD1 HSET KO cells = assay: Click probe localization imaging in DLD1 HSET KO cells (negative control); assay type: cell-based, human; conditions: DLD1 HSET KO, Tz-Cy5 800nM
Protocol: as §1, §2, §3

[2] = 5μM, Panel A: 3 quick washes at room temperature
[3] = 5μM, Panel B: 2 quick washes then 1 at 37 °C for 5 minutes
[4] = 5μM, Panel C: 2 quick washes then 1 at 37 °C for 10 minutes
[5] = 10μM, Panel A: 3 quick washes at room temperature
[6] = 10μM, Panel B: 2 quick washes then 1 at 37 °C for 5 minutes
[7] = 10μM, Panel C: 2 quick washes then 1 at 37 °C for 10 minutes

half-life [1]: 3.58 h
SMILES: CCCOC(=O)c1sc(NC(=O)CCNC(=O)c2cccc(-c3noc(C)n3)c2)nc1C [Compound 32, Propyl 4-Methyl-2-(3-(3-(5-methyl-1,2,4-oxadiazol-3-yl)benzamido)propanamido)thiazole-5-carboxylate]

displacement of TCO probe 40 from HSET in cells (in words) (HSET in DLD1 4N cells; competition with 3 μM 40, up to 10 μM 36): dose-dependent manner
SMILES: CCCOC(=O)c1sc(NC(=O)C[C@H](CCCN(C)C)NC(=O)c2cccc(-c3noc(C)n3)c2)nc1C [Compound 36, Propyl (S)-2-(6-(Dimethylamino)-3-(3-(5-methyl-1,2,4-oxadiazol-3-yl)benzamido)hexanamido)-4-methylthiazole-5-carboxylate]

Average Pixel intensity (HSET in DLD1 4N cells; [2]): 5372
Average Pixel intensity (HSET in DLD1 4N cells; [3]): 6057
Average Pixel intensity (HSET in DLD1 4N cells; [4]): 4723
Average Pixel intensity (HSET in DLD1 4N cells; [5]): 7167
Average Pixel intensity (HSET in DLD1 4N cells; [6]): 7628
Average Pixel intensity (HSET in DLD1 4N cells; [7]): 6337
SMILES: CCCOC(=O)c1sc(NC(=O)C[C@H](CCCN(C)C(=O)O[C@@H]2CC/C=C/CCC2)NC(=O)c2cccc(-c3noc(C)n3)c2)nc1C [Compound 38, Propyl 2-((S)-6-(((((S,E)-Cyclooct-4-en-1-yl)oxy)carbonyl)(methyl)amino)-3-(3-(5-methyl-1,2,4-oxadiazol-3-yl)benzamido)hexanamido)-4-methylthiazole-5-carboxylate]
Average Pixel intensity (DLD1 HSET KO cells; [2]): 799
Average Pixel intensity (DLD1 HSET KO cells; [3]): 752
Average Pixel intensity (DLD1 HSET KO cells; [4]): 702
Average Pixel intensity (DLD1 HSET KO cells; [5]): 1464
Average Pixel intensity (DLD1 HSET KO cells; [6]): 1121
Average Pixel intensity (DLD1 HSET KO cells; [7]): 803
